Where two headings read alike, the source gives them in different places.
Columns and labels:
Drosophila OR49b = target: T1, Drosophila OR49b (Drosophila melanogaster, UniProt Q9V6H2); assay: cell-based; conditions: for activation at 1 µM / activation at 10 µM / activation at 100 µM: HEK293; for Average response / OR49b response (VUAA1-normalized) at 1 μM / OR49b response (VUAA1-normalized) at 10 μM / OR49b response (VUAA1-normalized) at 100 μM: OR49b cell line; for Average response: mean of biological replicates
T1 construct: expressed in transfected cells
T1 sequence (Q9V6H2 1-375): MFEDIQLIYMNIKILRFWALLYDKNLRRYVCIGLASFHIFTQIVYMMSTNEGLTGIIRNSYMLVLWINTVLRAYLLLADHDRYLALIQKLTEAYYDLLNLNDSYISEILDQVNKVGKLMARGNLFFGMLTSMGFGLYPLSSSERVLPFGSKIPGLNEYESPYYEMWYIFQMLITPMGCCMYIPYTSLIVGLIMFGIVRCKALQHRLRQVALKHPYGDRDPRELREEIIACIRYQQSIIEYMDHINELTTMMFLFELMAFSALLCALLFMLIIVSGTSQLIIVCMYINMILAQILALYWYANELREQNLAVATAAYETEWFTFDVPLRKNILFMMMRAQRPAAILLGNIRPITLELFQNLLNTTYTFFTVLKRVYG
T1 sequence (Q9VNB5 1-486 partner): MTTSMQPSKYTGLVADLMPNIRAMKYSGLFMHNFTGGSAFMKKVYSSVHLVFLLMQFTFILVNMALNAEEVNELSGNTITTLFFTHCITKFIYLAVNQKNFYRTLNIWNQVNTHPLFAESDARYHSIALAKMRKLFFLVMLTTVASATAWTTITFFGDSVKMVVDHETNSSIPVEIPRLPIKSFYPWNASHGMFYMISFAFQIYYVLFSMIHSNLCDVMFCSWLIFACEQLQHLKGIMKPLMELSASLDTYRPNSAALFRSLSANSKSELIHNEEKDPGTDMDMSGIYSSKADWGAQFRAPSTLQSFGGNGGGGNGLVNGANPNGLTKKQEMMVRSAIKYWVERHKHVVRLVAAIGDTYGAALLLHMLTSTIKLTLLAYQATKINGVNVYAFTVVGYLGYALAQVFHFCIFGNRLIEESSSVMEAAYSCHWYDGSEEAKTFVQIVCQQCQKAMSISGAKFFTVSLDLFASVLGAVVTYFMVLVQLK
Protocol: (§1) These VUAA1 normalized ∆F values were used to compare the different receptors and ligands.
(§2) The concentration-dependent effect of the reference ligands on their cognate cell lines was examined in more detail. Twelve different ligand concentrations were measured on each cell line in an overall 0.01 μM to 100 μM concentration range with 5 repetitions with three technical replicates each time.
(§3) Twelve thousand to 18,000 cells were plated into each well of a black wall, transparent bottom 384-well microplate (Greiner) 48 h or 72 h before the measurements and were simultaneously treated with 1 μg/mL doxycycline. […] The plate has 24 columns, thus we could record responses in up to eight different cell lines in each plate. On the day of the experiment, the growth medium was replaced with 20 µL assay buffer/well (140 mM NaCl, 5 mM KCl, 2 mM CaCl2, 1 mM MgCl2, 5 mM HEPES-Na, 20 mM glucose, pH 7.3, 340 mOsm). […] Baseline fluorescence (F0) was recorded for 5 s, after which 7 µL VOC buffer (140 mM NaCl, 5 mM KCl, 2 mM CaCl2, 1 mM MgCl2, 5 mM HEPES-Na, 31 mM glucose, 0.1% DMSO, pH 7.3, 340 mOsm) was injected into each well in one row and the fluorescence response was recorded for an additional 30 s, at a rate of one read/sec. VOC solutions (VOC buffer with 4× concentration of the final measured VOC concentration, 9 µL/well was injected) were measured on the same wells in a second round with the same protocol. Each individual concentration of a specific VOC sample was recorded in three wells for the same cell line on the same microplate. The raw data were exported in xls file format, F0 and FMAX values, and the fluorescence intensity changes (∆F) were calculated in Excel (Microsoft) (Supplementary file Data summary.xlsx) using the following equation: ΔF=FMAX-F0/F0 (see also Fig. 1C). On each plate, we recorded the response of each cell line to 50 µM VUAA1. The average of these ∆F values of each cell line were used to calculate the VUAA1-normalized values for the rest of the plate, by dividing VOC response ∆F values by the average VUAA1 response ∆F value of the corresponding OR cell line. Each VOC-OR combination was measured three times as technical replicates. […] The average of these replicates were used as one ∆F and VUAA1-normalized ∆F in the following analysis.
(§4) In the next rows we tested the reference VOCs (or other VOCs known to activate the corresponding cell lines), in order to test if all cell lines are responsive. The remaining rows were used to test VOCs with unknown effect.
(§5) The recorded FMAX, F0, ∆F, VUAA1-normalized ∆F values, as well as the OR name, the name of the tested sample, and the final concentration for each well were copied into supplementary file Data summary.xlsx, that was used to summarize all the plates recorded. Here, the averages of the measurements were calculated for each receptor-VOC-concentration combination.

Drosophila OR71a = target: T2, Drosophila OR71a (Drosophila melanogaster, UniProt Q9VUK5); assay: Calcium ion fluorescence (GCaMP6) assay, OR71a stable HEK293 cell line; type: cell-based; conditions: for activation at 1 µM / activation at 10 µM / activation at 100 µM: HEK293, read-out: OR71a response (VUAA1-normalized response); for Average response / OR71a response (VUAA1-normalized) at 1 μM / OR71a response (VUAA1-normalized) at 10 μM / OR71a response (VUAA1-normalized) at 100 μM: OR71a cell line; for Average response: VUAA1-normalized response, mean of biological replicates
T2 construct: expressed in transfected cells
T2 sequence (Q9VUK5 1-378): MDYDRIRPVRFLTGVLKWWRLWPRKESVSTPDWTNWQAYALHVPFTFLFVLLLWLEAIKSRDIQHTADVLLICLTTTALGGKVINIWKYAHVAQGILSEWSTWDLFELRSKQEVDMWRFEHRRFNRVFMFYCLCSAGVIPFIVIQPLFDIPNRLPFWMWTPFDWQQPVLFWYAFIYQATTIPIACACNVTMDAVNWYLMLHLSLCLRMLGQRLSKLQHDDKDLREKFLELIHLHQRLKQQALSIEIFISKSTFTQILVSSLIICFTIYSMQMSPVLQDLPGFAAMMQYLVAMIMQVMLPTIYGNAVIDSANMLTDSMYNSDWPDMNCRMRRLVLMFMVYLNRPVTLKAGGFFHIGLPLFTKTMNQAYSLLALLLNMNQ
T2 sequence (Q9VNB5 1-486 partner): T1 sequence (Q9VNB5 1-486 partner)
Protocol: as §1, §2, §3, §4, §5

[1] = 1 μM VOC, 50 μM VUAA1 = 1, read-out: OR49b Average response (VUAA1-normalized)
[2] = 10 μM VOC, 50 μM VUAA1 = 1, read-out: OR49b Average response (VUAA1-normalized)
[3] = 100 μM VOC, 50 μM VUAA1 = 1, read-out: OR49b Average response (VUAA1-normalized)
[4] = VOC concentration 1 μM, read-out: OR49b response (VUAA1-normalized response)
[5] = VOC concentration 10 μM, read-out: OR49b response (VUAA1-normalized response)
[6] = VOC concentration 100 μM, read-out: OR49b response (VUAA1-normalized response)
[7] = concentration 1, normalized fluorescence change, values below 0.05 threshold given as 0
[8] = concentration 10, normalized fluorescence change, values below 0.05 threshold given as 0
[9] = concentration 100, normalized fluorescence change, values below 0.05 threshold given as 0
[10] = ligand concentration 1 (unit not given), threshold 0.05, below shown as 0
[11] = ligand concentration 10 (unit not given), threshold 0.05, below shown as 0
[12] = ligand concentration 100 (unit not given), threshold 0.05, below shown as 0

Molecule	activation at 1 µM (Drosophila OR49b; [4]) [%]	activation at 10 µM (Drosophila OR49b; [5]) [%]	activation at 100 µM (Drosophila OR49b; [6]) [%]	Average response (Drosophila OR49b; odorant cc. 1 µM)	Average response (Drosophila OR49b; odorant cc. 10 µM)	Average response (Drosophila OR49b; odorant cc. 100 µM)	activation at 1 µM (Drosophila OR71a) [%]	activation at 10 µM (Drosophila OR71a) [%]	activation at 100 µM (Drosophila OR71a) [%]	Average response (Drosophila OR71a; cc. 1 µM)	Average response (Drosophila OR71a; cc. 10 µM)	Average response (Drosophila OR71a; cc. 100 µM)	DF norm AVERAGE OR71a (Drosophila OR71a; [7])	DF norm AVERAGE OR71a (Drosophila OR71a; [8])	DF norm AVERAGE OR71a (Drosophila OR71a; [9])	OR49b response (VUAA1-normalized) at 1 μM (Drosophila OR49b; VOC concentration 1 μM)	OR49b response (VUAA1-normalized) at 10 μM (Drosophila OR49b; VOC concentration 10 μM)	OR49b response (VUAA1-normalized) at 100 μM (Drosophila OR49b; VOC concentration 100 μM)	OR71a response (VUAA1-normalized) at 1 μM (Drosophila OR71a; VOC concentration 1 μM)	OR71a response (VUAA1-normalized) at 10 μM (Drosophila OR71a; VOC concentration 10 μM)	further results
Cc1ccc(O)cc1 [4-methylphenol]	0	11	44	0.0329	0.11	0.44	0	0	0	0.00	0.00	0.00	0	0	0	–	–	–	–	–	activation at 1 µM (Drosophila OR49b; [1]): 3%; activation at 10 µM (Drosophila OR49b; [2]): 11%; activation at 100 µM (Drosophila OR49b; [3]): 44%
CCCCC(C)O (centres unmarked) [2-hexanol]	0	0	0	0.00	0.00	0.0161	0	0	0	0.00	0.00	0.0351	0	0	0	–	–	–	–	–	DF norm AVERAGE OR49b (Drosophila OR49b): 0
(-)-alpha-cedrene	–	–	–	0.00	0.0843	0.00	–	–	–	0.00	0.043	0.00	0	0	0	–	–	–	–	–	OR49b response (VUAA1-normalized response) (Drosophila OR49b; VOC concentration 1 μM): 0.00; OR49b response (VUAA1-normalized response) (Drosophila OR49b; VOC concentration 10 μM): 0.0843; OR49b response (VUAA1-normalized response) (Drosophila OR49b; VOC concentration 100 μM): 0.00; OR71a response (VUAA1-normalized response) (Drosophila OR71a; VOC concentration 1 μM): 0.00; OR71a response (VUAA1-normalized response) (Drosophila OR71a; VOC concentration 10 μM): 0.00; OR71a response (VUAA1-normalized response) (Drosophila OR71a; VOC concentration 100 μM): 0.00
CC/C=C\CCO [Z-3-hexenol]	–	–	–	–	–	–	–	–	–	–	–	–	–	–	–	0.00	0.00	0.00	0.00	0.00	OR71a response (VUAA1-normalized) at 100 μM (Drosophila OR71a; VOC concentration 100 μM): 0.00
C=C1CCC2(C(C)C)CC12 (centres unmarked) [sabinene]	–	–	–	0.00	0.00	0.0368	–	–	–	0.00	0.00	0.0235	–	–	–	0.00	0.00	0.00	0.00	0.00	DF norm AVERAGE OR49b (Drosophila OR49b; [10]): 0; DF norm AVERAGE OR49b (Drosophila OR49b; [11]): 0; DF norm AVERAGE OR49b (Drosophila OR49b; [12]): 0; OR71a response (VUAA1-normalized) at 100 μM (Drosophila OR71a; VOC concentration 100 μM): 0.00; DF norm AVERAGE OR71a (Drosophila OR71a; [10]): 0; DF norm AVERAGE OR71a (Drosophila OR71a; [11]): 0; DF norm AVERAGE OR71a (Drosophila OR71a; [12]): 0
CCCCC(C)=O [2-hexanone]	0	0	0	0.00	0.00	0.00	8	0	0	0.08	0.00	0.00	0.08158	0	0	–	–	–	–	–	DF norm AVERAGE OR49b (Drosophila OR49b): 0
COC(=O)c1ccccc1 [methyl benzoate]	–	–	–	0.13	0.00	0.05	–	–	–	0.00	0.00	0.0121	–	–	–	0.13	0.00	0.00	0.00	0.00	DF norm AVERAGE OR49b (Drosophila OR49b; [10]): 0.1337; DF norm AVERAGE OR49b (Drosophila OR49b; [11]): 0; DF norm AVERAGE OR49b (Drosophila OR49b; [12]): 0; OR71a response (VUAA1-normalized) at 100 μM (Drosophila OR71a; VOC concentration 100 μM): 0.00; DF norm AVERAGE OR71a (Drosophila OR71a; [10]): 0; DF norm AVERAGE OR71a (Drosophila OR71a; [11]): 0; DF norm AVERAGE OR71a (Drosophila OR71a; [12]): 0
Cc1ccc(C)c(C)c1 [1,2,4-trimethylbenzene]	0	0	20	0.00	0.00	0.20	0	0	0	0.00	0.00	0.00	0	0	0	–	–	–	–	–	activation at 1 µM (Drosophila OR49b; [1]): 0%; activation at 10 µM (Drosophila OR49b; [2]): 0%; activation at 100 µM (Drosophila OR49b; [3]): 20%

Reference: publication PMC10709440, “High-throughput ligand profile characterization in novel cell lines expressing seven heterologous insect olfactory receptors for the detection of volatile plant biomarkers” (Scientific Reports, 2023)
